Measured values reported in PubChem BioAssay (NCI).
Several values for one entry are separate records, joined by “and”; a condition that tells them apart may be missing. Equal entries are not always repeated.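 Interpolation was linear, between the two tested concentrations surrounding the appropriate level; five concentrations were tested over 48 hours in 96-well plates. The concentration for 50% growth inhibition is given as GI50. Definition used: TGI = concentration required for complete inhibition of growth.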

Assays:
Experiment in all cases: inhibition of tumour cell growth, NCI panel, 48 h
[1] = test system: MALME-3M melanoma
[2] = test system: MDA-MB-231 breast
[3] = test system: UACC-62 melanoma
[4] = test system: OVCAR-8 ovarian
[5] = test system: SF-539 CNS
[6] = test system: SW-620 colon
[7] = test system: CAKI-1 renal
[8] = test system: T-47D breast
[9] = test system: DU-145 prostate
[10] = test system: IGROV1 ovarian

Compound	TGI [1]	TGI [2]	TGI [3]	TGI [4]	TGI [5]	TGI [6]	TGI [7]	TGI [8]	TGI [9]	TGI [10]	GI50 [1]	GI50 [2]	GI50 [3]	GI50 [4]	GI50 [5]	GI50 [6]	GI50 [7]	GI50 [8]	GI50 [9]	GI50 [10]
CN(C)CCC(=O)N1C/C(=C\c2ccc(Cl)c(Cl)c2)C(=O)/C(=C/c2ccc(Cl)c(Cl)c2)C1	1.51 µM	0.799 µM	1.72 µM	0.752 µM	0.832 µM	0.349 µM	0.984 µM	2.48 µM	0.867 µM	0.648 µM										
CS(=O)(=O)CCNCc1coc(-c2ccc3ncnc(Nc4ccc(OCc5ccccc5)cc4)c3c2)c1	9.57 µM	8.26 µM	8.18 µM	> 25 µM	8.82 µM	8.34 µM	13.4 µM	8.03 µM	> 25 µM	> 20.7 µM	4.71 µM	4.15 µM	4.31 µM	8.66 µM	4.25 µM	4.34 µM	3.98 µM	3.57 µM	3.75 µM	3.7 µM
Cn1c(Cl)c(/C=C2/C(=O)Nc3ccccc32)c2ccccc21	15.3 µM	12.7 µM	7.1 µM	> 37.1 µM	1.06 µM	14.7 µM	17.9 µM	23.9 µM	15.8 µM	> 100 µM	0.179 µM	0.588 µM	0.13 µM	1.7 µM	0.17 µM	0.299 µM	0.603 µM	0.724 µM	1.4 µM	2.12 µM
CCN(CC)CCCC(CCl)Nc1ccnc2cc(Cl)ccc12 (stereo unspecified)	21.1 µM and 20.1 µM	79.5 µM and > 43.1 µM	38.7 µM and 34.8 µM	54.8 µM and 71.3 µM	24.8 µM and 27.5 µM	54.4 µM and > 100 µM	47.5 µM and 44.8 µM	> 100 µM	> 100 µM	> 100 µM	8.53 µM and 4.95 µM	16.3 µM and 5.11 µM	20 µM and 6.69 µM	20.2 µM and 19.4 µM	10.7 µM and 11.4 µM	22.5 µM and 33.5 µM	22.1 µM and 16.2 µM	49.2 µM and 34.1 µM	49.6 µM and 47.1 µM	70.5 µM and 69.1 µM
CCCCCCCCCCCCCCCCCCOC[C@H](COP(=O)(O)O[C@H]1[C@H](O)[C@@H](O)[C@H](O)C[C@H]1O)OC	> 100 µM and 33.9 µM	> 100 µM and 27.6 µM	> 100 µM and 30.1 µM	> 100 µM and 31.8 µM	> 100 µM and 31 µM	> 100 µM and 39.3 µM	> 100 µM and 25.1 µM	> 100 µM and 37.4 µM	> 100 µM and 34.5 µM	60.6 µM and 13.5 µM	> 100 µM and 18.3 µM	> 100 µM and 13.6 µM	> 100 µM and 16.4 µM	> 100 µM and 16.9 µM	> 100 µM and 16.2 µM		87.4 µM and 9.51 µM	> 100 µM and 16.9 µM	> 100 µM and 17.3 µM	21.9 µM and 3.28 µM
O=C(Oc1ccc[nH]c1=O)c1cc([N+](=O)[O-])cc([N+](=O)[O-])c1	> 100 µM	> 100 µM	> 100 µM	> 100 µM	> 100 µM	> 100 µM	> 100 µM	> 100 µM	> 100 µM	> 100 µM	51.7 µM	> 100 µM	20.9 µM	> 100 µM	> 100 µM	99 µM	35.7 µM	73.2 µM	> 100 µM	> 100 µM
COc1cccc2c1C(=N)c1c(O)c3c(c(O)c1C2=O)C[C@@](O)(C(C)=O)C[C@@H]3O[C@H]1C[C@H](N)[C@H](O)[C@H](C)O1	3.24 µM	7.74 µM	1.79 µM	1.95 µM	1.48 µM	3.65 µM	4.07 µM	4.17 µM	1.72 µM	6.25 µM	0.391 µM	1.26 µM	0.248 µM	0.327 µM	0.174 µM		0.445 µM	0.24 µM	0.292 µM	0.645 µM
COc1ccc2c(c1)C(=O)/C(=C/c1cccc(OCC(=O)c3ccccc3)c1)O2	4.8 µM	23.2 µM	27 µM	31.4 µM	13.8 µM	3.43 µM	11.5 µM	4.88 µM	13.7 µM	13.3 µM	1.95 µM	7.62 µM	13.4 µM	16.4 µM	3.79 µM	1.77 µM	3.16 µM	2.04 µM	3.9 µM	3.66 µM
O=C(O)c1ccc(CN2CCC(CN[C@@H]3C[C@H]3c3ccccc3)CC2)cc1	> 100 µM	> 100 µM	> 100 µM	> 100 µM	> 100 µM	> 100 µM	> 100 µM	> 100 µM	> 100 µM	> 100 µM	> 100 µM	> 100 µM	> 100 µM	> 100 µM	> 100 µM	> 100 µM	> 100 µM	> 100 µM	> 100 µM	> 100 µM
C=C(C)[C@@H]1CC[C@]2(COCCCN)CC[C@]3(C)[C@H](CC[C@@H]4[C@@](C)(CCCNCCCN)[C@H](C(=C)C)CC[C@]43C)[C@@H]12	3.12 µM	3.29 µM	3.22 µM	3.61 µM	3.21 µM	3.79 µM	3.13 µM	3.63 µM	3.43 µM	2.9 µM	1.66 µM	1.8 µM	1.71 µM	1.91 µM	1.76 µM	1.84 µM	1.75 µM	1.78 µM	1.92 µM	1.49 µM
Cc1nnc(-c2ccc(C)c(-c3ccc(C(=O)Nc4cccc(C#N)c4)cc3)c2)o1	> 25 µM	> 25 µM	> 25 µM	> 25 µM	> 25 µM	> 25 µM	> 25 µM	> 25 µM	> 25 µM	> 25 µM	> 25 µM	> 25 µM	> 25 µM	> 25 µM	> 25 µM	> 25 µM	> 25 µM	> 15.9 µM	> 25 µM	> 25 µM
CN(C)Cc1cc(C(F)(F)F)ccc1C(O)(c1ccccc1)c1ccccc1	33.9 µM	24.8 µM	26 µM	35.8 µM	32.7 µM	41 µM	31.2 µM	47.3 µM	> 100 µM	30.9 µM										
COCCOC(=O)C1=C(O)c2ccccc2S(=O)(=O)N1C	> 100 µM	> 100 µM	> 100 µM	> 100 µM	> 100 µM	> 100 µM	> 100 µM	> 100 µM	> 100 µM	> 100 µM										
Oc1ccc2ccccc2c1N=Nc1cccc2ccccc12	> 100 µM	> 100 µM	> 100 µM	> 100 µM	76.3 µM	> 100 µM	> 100 µM	> 100 µM	> 100 µM	> 100 µM										
COc1ccc(C(C#N)NC23CC4CC(CC(C4)C2)C3)cc1 (stereo unspecified)	> 100 µM	> 100 µM	> 100 µM	> 100 µM	> 100 µM	> 100 µM	> 100 µM	> 100 µM	> 100 µM	> 100 µM										
O=C1C=CC(=O)C2C1C1(Cl)C(Cl)=C(Cl)C2(Cl)C1(Cl)Cl (stereo unspecified)	15.8 µM	16.4 µM	19.2 µM	48.6 µM	23.2 µM	15.1 µM	12.1 µM	22.7 µM	15.6 µM	19.2 µM	3.23 µM	3.62 µM	5.19 µM	10.1 µM	6.46 µM	3.94 µM	2.84 µM	4.95 µM	3.73 µM	2.92 µM
C#CC1(O)C(COP(=O)(O)OCC(COP(=O)(O)OCC2OC(n3cc(F)c(=O)[nH]c3=O)CC2O)OCCCCCCCCCCCCCCCCCC)OC(n2ccc(N)nc2=O)C1O (stereo unspecified)	5.36 µM		2.69 µM	> 36.5 µM	3.33 µM	> 100 µM	1.16 µM	> 51.3 µM	> 71.9 µM		0.102 µM	0.32 µM	0.196 µM	0.169 µM	< 0.01 µM	0.0269 µM	0.0293 µM	3.72 µM	0.106 µM	0.236 µM
